Data published in article PMC3306502 (Cancer research, 2012).

Tests used:
[1] = test system: CRPC; conditions: plus prednisone; CRPC patients previously treated with docetaxel; cited from earlier work
[2] = test system: AR-regulated genes; assay: qRT-PCR analysis of AR-regulated genes in LNCaP/AR; conditions: absence of R1881; up to 10 μM
[3] = test system: VCaP cells; assay: VCaP proliferation assay; conditions: 7d treatment; for VCaP proliferation, antagonist-mode: with 30pM R1881; for VCaP proliferation, agonist-mode: without R1881
[4] = test system: LNCaP/AR-luc xenograft tumors; assay: luciferase-imaging of LNCaP/AR-luc xenograft tumors in castrate male mice; conditions: 10 mg/kg/day oral, 17 days
[5] = test system: LNCaP/AR(cs) xenografts; assay: LNCaP/AR; conditions: 28d, intact (non-castrate) mice
[6] = test system: prostate and epididymis; conditions: 10 mg/kg/day for 28 days
[7] = dog pharmacokinetics
[8] = steady-state plasma and tumor-tissue concentrations in LNCaP/AR; conditions: for Plasma C24hr / Tumor C24hr: 28d dosing, mean ± SD; for Plasma C24hr: 24h after final dose; for Tumor C24hr: LNCaP/AR(cs) xenograft tumor-tissue; for Kp: mouse, tumor, oral
[9] = test system: AR; assay: AR binding-assay using MDA-MB-453 cell-extracts
[10] = test system: LNCaP/AR(cs) xenograft tumors; assay: LNCaP/AR; conditions: for tumors with >50% regression (volume): 10 mg/kg/day daily-gavage
[11] = mouse pharmacokinetics
[12] = test system: LNCaP/AR tumors; assay: Ki67 IHC and TUNEL-staining of LNCaP/AR tumor-tissue from castrate mice; conditions: 10 mg/kg/day, 25d
[13] = test system: PC-3 prostate cancer cells; assay: growth of AR-negative PC-3 cells
[14] = steady-state plasma- and brain-tissue levels in mice; conditions: 10 mg/kg/day; for Brain C24hr / Plasma C24hr: 28d daily-dosing; for Brain C24hr: 24h after final-dose; for Plasma C24hr: 24h after final-dose (brain study); for Kp: mouse, brain
[15] = test system: CRPC; conditions: chemotherapy-naïve and -treated CRPC patients; cited from earlier work

CC(=O)O[C@H]1CC[C@@]2(C)C(=CC[C@@H]3[C@@H]2CC[C@]2(C)C(c4cccnc4)=CC[C@@H]32)C1 [abiraterone acetate]
increase in overall survival over control (prednisone only) [1]: 3.9 months

CNC(=O)c1ccc(N2C(=S)N(c3cnc(C#N)c(C(F)(F)F)c3)C(=O)C23CCC3)cc1F [ARN-509]
agonist activity on AR-regulated gene expression [2]: did not exhibit agonist activity | VCaP proliferation, antagonist-mode [3]: antagonized the proliferative effect of R1881 | VCaP proliferation, agonist-mode [3]: fails to stimulate proliferation | androgen-driven luciferase reporter-gene activity normalized to tumor volume, vs vehicle [4]: consistently reduced | anti-tumor effect ([5]; 10 mg/kg/day): largely confined to stabilization of tumor-growth | animals with robust tumor-regression (>50% reduction in starting tumor volume) ([5]; 30 mg/kg/day): 6/8 | apoptotic-rate in dog prostates (TUNEL-staining) [6]: no change in apoptotic-rate | epididymis histopathology / spermatozoa [6]: contained minimal spermatozoa | prostate histopathology [6]: lack of glandular secretory activity | reduction in epididymis weight ([6]; not statistically significant): 1.7 fold | reduction in weight of dog prostates ([6]; p<0.05 vs vehicle): 3 fold | oral bioavailability [7]: high | plasma half-life [7]: long | Plasma C24hr ([8]; 1 mg/kg/day): 425 ± 160 ng/mL | Tumor C24hr ([8]; 1 mg/kg/day): 0.991 ± 0.30 µg/g | Plasma C24hr ([8]; 10 mg/kg/day): 3310 ± 980 ng/mL | Tumor C24hr ([8]; 10 mg/kg/day): 3.26 ± 0.82 µg/g | Kp ([8]; 1 mg/kg/day): 2.59 ± 0.11 | Kp ([8]; 10 mg/kg/day): 1.07 ± 0.44 | AR binding in cell-extracts, ARN-509 vs bicalutamide [9]: does not differentiate between ARN-509 and bicalutamide | tumors with >50% regression (volume) ([10]; day 28, castrate mice): 8/10 | tumors no longer palpable ([10]; 10 mg/kg/day, day 28, of 10 tumors): 2 | animals with >50% reduction in tumor-volume ([10]; 100 mg/kg/day, day 28, castrate mice): 13/19 | optimal biological dose (OBD: lowest dose yielding maximum efficacy) ([10]; LNCaP/AR model): 10–30 mg/kg/day | oral bioavailability [11]: high | plasma half-life [11]: long | increase in apoptotic rate (TUNEL) versus vehicle [12]: 10 fold | effect on growth of AR-negative PC-3 cells [13]: no significant effect on growth | Brain C24hr [14]: 0.479 ± 0.132 µg/g | Plasma C24hr [14]: 1640 ± 300 ng/mL | Kp [14]: 0.293 ± 0.063

CNC(=O)c1ccc(N2C(=S)N(c3ccc(C#N)c(C(F)(F)F)c3)C(=O)C2(C)C)cc1F [MDV3100, reference compound]
agonist activity on AR-regulated gene expression [2]: did not exhibit agonist activity | patients with significant serum-PSA responses (>50% decrease) [15]: > 50% | Plasma C24hr ([8]; 1 mg/kg/day): 1080 ± 260 ng/mL | Tumor C24hr ([8]; 1 mg/kg/day): 0.439 ± 0.12 µg/g | Plasma C24hr ([8]; 10 mg/kg/day): 11000 ± 2500 ng/mL | Tumor C24hr ([8]; 10 mg/kg/day): 3.39 ± 1.50 µg/g | animals with >50% reduction in tumor-volume ([10]; 30 mg/kg/day, day 28, castrate mice): 3 of 19 | animals with >50% reduction in tumor-volume ([10]; mouse, in vivo): 12/19 | optimal biological dose (OBD: lowest dose yielding maximum efficacy) ([10]; mouse, in vivo): 30–100 mg/kg/day | Brain C24hr [14]: 2.01 ± 0.83 µg/g | Plasma C24hr [14]: 10500 ± 2300 ng/mL | Kp [14]: 0.188 ± 0.044

CC(O)(CS(=O)(=O)c1ccc(F)cc1)C(=O)Nc1ccc(C#N)c(C(F)(F)F)c1 (stereo not drawn) [bicalutamide, reference compound]
agonist activity on AR-regulated gene expression [2]: altered gene-expression consistent with its well-documented agonist activity | VCaP proliferation, antagonist-mode [3]: only partially antagonized the effects of R1881 | VCaP proliferation, agonist-mode [3]: induced cell-proliferation in a dose-dependent manner | tumors with >50% regression (volume) ([10]; day 28, castrate mice): 1/10
